PMC6133293 (SLAS discovery : advancing life sciences R & D, 2018)

Molecular target: G551D-CFTR (Homo sapiens, UniProt P13569, G551D)
Assay: short-circuit current in FRT cells, positive control potentiator
Assay type: cell-based

G551D-CFTR, sequence (P13569 whole entry G551D): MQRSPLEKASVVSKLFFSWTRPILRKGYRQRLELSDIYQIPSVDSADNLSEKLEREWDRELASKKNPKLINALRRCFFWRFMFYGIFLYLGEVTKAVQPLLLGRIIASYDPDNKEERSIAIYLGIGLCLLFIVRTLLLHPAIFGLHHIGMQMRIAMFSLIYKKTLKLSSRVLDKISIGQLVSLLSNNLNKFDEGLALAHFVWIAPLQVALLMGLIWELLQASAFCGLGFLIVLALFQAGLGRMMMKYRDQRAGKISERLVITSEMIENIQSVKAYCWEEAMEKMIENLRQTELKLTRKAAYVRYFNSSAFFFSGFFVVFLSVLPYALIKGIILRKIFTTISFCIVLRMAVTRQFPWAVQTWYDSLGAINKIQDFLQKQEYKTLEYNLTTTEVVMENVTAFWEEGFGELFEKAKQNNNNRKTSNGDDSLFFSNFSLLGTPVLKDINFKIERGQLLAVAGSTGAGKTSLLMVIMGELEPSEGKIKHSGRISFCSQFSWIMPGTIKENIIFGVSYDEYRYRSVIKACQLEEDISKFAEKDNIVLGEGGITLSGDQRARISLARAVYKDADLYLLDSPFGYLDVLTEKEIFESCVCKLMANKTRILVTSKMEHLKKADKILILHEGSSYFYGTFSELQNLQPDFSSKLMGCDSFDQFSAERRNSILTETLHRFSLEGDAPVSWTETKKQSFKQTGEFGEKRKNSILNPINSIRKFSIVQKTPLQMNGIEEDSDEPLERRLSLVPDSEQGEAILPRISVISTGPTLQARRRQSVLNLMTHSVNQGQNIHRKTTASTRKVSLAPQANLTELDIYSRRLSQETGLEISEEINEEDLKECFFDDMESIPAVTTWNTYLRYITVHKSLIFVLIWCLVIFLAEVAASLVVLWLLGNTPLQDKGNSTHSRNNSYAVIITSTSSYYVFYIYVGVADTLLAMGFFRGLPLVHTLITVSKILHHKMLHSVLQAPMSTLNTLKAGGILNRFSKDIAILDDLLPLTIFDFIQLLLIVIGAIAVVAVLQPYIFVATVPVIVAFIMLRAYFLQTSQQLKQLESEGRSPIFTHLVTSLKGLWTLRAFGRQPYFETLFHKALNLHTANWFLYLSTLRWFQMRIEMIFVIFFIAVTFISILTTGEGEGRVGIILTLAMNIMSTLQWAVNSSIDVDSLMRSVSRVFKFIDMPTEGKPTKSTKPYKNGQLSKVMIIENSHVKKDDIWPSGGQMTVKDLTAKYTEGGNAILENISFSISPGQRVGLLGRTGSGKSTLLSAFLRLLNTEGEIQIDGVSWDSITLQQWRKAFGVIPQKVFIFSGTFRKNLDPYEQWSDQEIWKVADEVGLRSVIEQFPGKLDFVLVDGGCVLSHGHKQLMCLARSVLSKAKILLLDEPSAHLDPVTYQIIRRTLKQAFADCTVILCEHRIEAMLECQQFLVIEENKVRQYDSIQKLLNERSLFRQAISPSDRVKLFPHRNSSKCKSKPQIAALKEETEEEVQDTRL

**Q.** Which “short-circuit current in FRT cells, positive control potentiator” value does the source give for `CC(C)(C)c1cc(C(C)(C)C)c(NC(=O)c2c[nH]c3ccccc3c2=O)cc1O` [VX-770] here?
**A.** A-01 did not activate G551D-CFTR at high concentration, with VX-770 shown as the positive control
